In patent US12448491B2, “Nano-patterend conductive polymer substrate with improved cell alignment, maturity, adhesion, and connectivity and method for manufacturing same” (priority 2022, dated 2025):

Columns and labels:
cardiomyocytes = assay: Drug screening on bare and embedded PDMS cantilevers (beat displacement); type: cell-based, rat; conditions: for displacement reduction: 10 nM drug; for contraction returned compared with before drug treatment: 24 h after media replacement
Text: To quantitatively analyze the correlation between cell maturation and drug toxicity, polymer cantilever arrays composed of the bare thin film and the embedded thin film were fabricated.

[1] = tested on: human-induced pluripotent stem cell-cardiomyocytes (hiPSC-CMs); assay: Drug screening for hiPSC-CMs on bare and embedded PDMS; type: cell-based; conditions: after 48 h
Description: Since pre-clinical studies on rats could not completely predict effects on the human heart, human-induced pluripotent stem cell-cardiomyocytes (hiPSC-CMs) had significant advantages over the use of animal models. To further investigate the responses of different drugs on immature and mature cardiomyocytes in human cells, hiPSC-CMs were cultured.

[2] = tested on: neonatal rat ventricular myocytes (NRVMs); assay: Comparison of NRVM and hiPSC-CM in drug test (NRVM); type: cell-based; conditions: animal cells
Text: (§1) There are several similarities and differences in the drug response between animal and human cardiomyocytes.

[3] = tested on: human-induced pluripotent stem cell-cardiomyocytes (hiPSC-CMs); assay: Comparison of NRVM and hiPSC-CM in drug test (hiPSC-CM); type: cell-based
Text: as §1

resistance of cardiomyocytes to the drug (cardiomyocytes; cultured on embedded PDMS, FIGS. 17B and 17C)	displacement reduction (cardiomyocytes; bare PDMS cantilever)	displacement reduction (cardiomyocytes; embedded PDMS cantilever)	beating of cardiomyocytes (cardiomyocytes; 1 μM drug, cultured on bare PDMS)	beat rate level compared with the maximum displacement value (cardiomyocytes; 1 μM drug, cultured on embedded PDMS) [%]	contraction returned compared with before drug treatment (cardiomyocytes; bare PDMS cantilever) [%]	contraction returned compared with before drug treatment (cardiomyocytes; embedded PDMS cantilever) [%]	decreased contraction force returned after washing (cardiomyocytes; after washing for 48 h, AgNW-embedded PDMS substrate) [%]	beat behavior after washing (cardiomyocytes; after washing for 48 h, control bare PDMS)	IC50 (cardiomyocytes; cardiomyocytes cultured on bare PDMS thin film) [nM]	IC50 (cardiomyocytes; cardiomyocytes cultured on embedded PDMS thin film) [nM]	tendency of beat frequency and contraction with increasing drug ([3]; human cells)	Compound	contraction force returned after replacement of culture ([1]; hiPSC-CMs on bare PDMS)	contraction force returned after replacement of culture ([1]; hiPSC-CMs on embedded PDMS) [%]	tendency of beat frequency and contraction with increasing drug [2]	IC50 ([3]; (b) of FIG. 20A, NRVM vs hiPSC-CM comparison, cell type of the value not stated) [nM]
enhanced resistance												Cc1cccc(CCN2CCC(C(=O)c3ccc(NS(C)(=O)=O)cc3)CC2)n1 [E-4031]				
	half displacement reduction	about 10%	no longer beat	20	10	≥ 75	75	not returned to the initial state	174	521	decrease only displacement	Cc1ccc2c(c1)C(=O)C1(O)CCN(c3ccccc3)C1=N2 (stereo not shown) [blebbistatin]	did not return	≥ 70	decrease both beat frequency and contraction force	~1000
